# Like-named read-outs stand apart in the source and are kept apart here.
# Key:
# [1] = tested on: HCT-116 human colon tumor cells; assay: Compound-induced apoptosis in HCT-116 human colon tumor cells (microscopy for morphological markers); type: cell-based
# Description: HCT-116 human colon tumor cells obtained from the American Type Culture Collection (ATCC) were grown in McCoy's 5A culture medium with 10% heat inactivated FBS, 1× penicillin/streptomycin, and 25 mM HEPES, in an incubator maintained at 37° C. with CO2 at 6-7% and humidity at 95%. Cells were treated with compounds using a dose range from 0.04 μM to 100 μM. After 48 hours they were examined by microscopy for signs of cell rounding, vaccuolation, and nuclear condensation. These are morphological markers associated with apoptosis, and are consistent with results obtained by performing an assay for nucleosomal DNA, or a TdT-mediated dUTP nick end labeling (TUNEL) assay.
# The concentrations cited are the minimal concentration required to induce these morphological changes in 50% of the treated cells.
# rat RabGGT = molecular target: T1, rat RabGGT (Rattus norvegicus, UniProt Q08602+Q08603); assay: RabGGT filter binding assay: transfer of (3H)geranylgeranyl from 3H-GGPP to recombinant Rab3A; type: biochemical; details: for IC90/IC50: RabGGT inhibition; for RabGGT inhibition: rat RabGGT enzyme
# T1 construct: purchased Calbiochem 345855; host or cells: Sf9/baculovirus
# T1 sequence (Q08602 1-567): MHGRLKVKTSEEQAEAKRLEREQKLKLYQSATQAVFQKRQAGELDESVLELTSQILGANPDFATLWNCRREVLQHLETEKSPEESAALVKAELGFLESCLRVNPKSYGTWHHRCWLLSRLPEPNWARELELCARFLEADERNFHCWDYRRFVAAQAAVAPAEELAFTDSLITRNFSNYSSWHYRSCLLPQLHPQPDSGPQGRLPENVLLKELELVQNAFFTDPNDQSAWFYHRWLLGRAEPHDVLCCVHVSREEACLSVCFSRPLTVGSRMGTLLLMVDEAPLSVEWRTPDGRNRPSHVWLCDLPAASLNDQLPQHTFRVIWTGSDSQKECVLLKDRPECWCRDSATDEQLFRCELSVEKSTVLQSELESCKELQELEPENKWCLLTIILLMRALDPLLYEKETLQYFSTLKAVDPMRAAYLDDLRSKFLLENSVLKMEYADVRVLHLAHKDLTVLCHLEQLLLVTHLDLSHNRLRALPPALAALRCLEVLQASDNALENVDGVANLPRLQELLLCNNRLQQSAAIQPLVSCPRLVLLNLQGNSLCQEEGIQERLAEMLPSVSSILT
# T1 sequence (Q08603 1-331): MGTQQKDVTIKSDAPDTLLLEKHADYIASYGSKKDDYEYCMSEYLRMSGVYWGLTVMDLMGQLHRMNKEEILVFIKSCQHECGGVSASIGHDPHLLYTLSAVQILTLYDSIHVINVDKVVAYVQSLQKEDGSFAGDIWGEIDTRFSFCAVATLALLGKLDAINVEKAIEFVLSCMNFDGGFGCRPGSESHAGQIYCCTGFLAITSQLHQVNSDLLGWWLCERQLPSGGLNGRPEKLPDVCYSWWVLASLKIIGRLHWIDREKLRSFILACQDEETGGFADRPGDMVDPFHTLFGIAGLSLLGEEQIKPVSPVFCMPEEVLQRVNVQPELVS
# From the text: The effect of compounds 7A through 7T on RabGGT activity was quantified using a filter binding assay that measures the transfer of (3H) geranylgeranyl groups (GG) from all-trans-(3H)geranylgeranyl pyrophosphate (3H-GGPP) to recombinant Rab3A protein (Shen & Seabra, 1996, JBC, 271 :3692; Armstrong et al., 1996, Methods in Enzymology 257:30). Modifications to published protocols are noted explicitly below.
# Recombinant rat RabGGT, expressed using the Sf9/baculovirus system, was purchased from Calbiochem (cat. no. 345855). Recombinant unprenylated human Rab3A was obtained from Panvera.(cat. no. P2173). Human REβ-1, expressed in Sf9 cells, was obtained from Calbiochem (cat. no. 554000). Tritium labeled geranylgeranyl pyrophosphate was purchased from Amersham Pharmacia Biotech (15 Ci/mmol). Unlabeled GGPP was purchased from Sigma (cat. no. G-6025).
# The reaction buffer contained 50 mM HEPES pH7.4, 5 mM MgCl2, 1 mM DTT, 1 mM Nβ-40. Solutions of RabGGT, Rab3A, REP-1, and GGPP were prepared in this reaction buffer. Final protein concentrations in the reaction mixture were modified from the published protocols, with the standard reaction mixture containing 2 μM Rab3A, 0.2 μM REP-1, 5 μM unlabeled GGPP, 0.5 μM labeled GGPP, and 10-50 nM RabGGT in a total volume of 20 μl. The specific activity of (3H)GGPP used in the assay was 3000 dpm/pmol.
# Compounds were prepared as 50 mM stocks in DMSO and diluted to give an appropriate concentration for the assay as a 20% DMSO stock. 2 μl of the diluted compound stock was added to a 20 μl reaction to give a final DMSO concentration of 2% in the assay.
# The order of addition of reagents was altered from the published protocols. Reaction mixtures were prepared by sequentially adding Rab3A and REP-1 proteins to the reaction buffer, followed by compound and RabGGT enzyme to a volume of 18 μl. Reactions were initiated by the addition of 2 μl of a solution that contained unlabeled and labeled GGPP. After a 30 minute incubation at 37° C., 1 ml of stop solution (1 volume of concentrated HCl acid with 9 volumes of ethanol) was added and mixed. The solution was then incubated at room temperature for 1 hour to completely precipitate proteins.
# The precipitate was collected by vacuum filtration using a vacuum filtration manifold (Millipore model 1225) onto 25 mm GF/A filters (Whatman) that were prewetted with ethanol. The tubes were rinsed twice with 1 ml ethanol which was also poured over the filters. Each filter was subsequently washed three times with 2 mls of ethanol per wash, dried under vacuum, and then put in scintillation vials. Four milliliters of scintillation fluid was added and the radioactivity was quantified on a scintillation counter. Several types of blank reactions were conducted including withholding the enzyme, the substrate, or the accessory protein REP-1, or replacing the compound solution with a 20% DMSO solution. For the substrate titration experiment, the equimolar amounts of Rab3A and REP-1 were mixed and preincubated for 30 min at room temperature before addition of the enzyme.
# The data was analyzed by non-linear regression analysis methods using the program PRIZM (GraphPad Software, Inc.). Inhibition constants were obtained by analyzing the data using the one site competition equation provided by the software. FIG. 7 presents a typical data series obtained for compound 7B using these methods.
# [2] = molecular target: Farnesyl Transferase (FT) (Homo sapiens, UniProt P49354+P49356); assay: Biochemical assay for inhibition of farnesyl transferase (FT)
# Description: Biochemical assays for inhibition of FT were performed as described by Mann et al. (1995, Drug Dev. Res. 34: 121) with the modifications described by Ding et al. (1999, J. Med. Chem., 42:5241)
# [3] = HCT-116, 48 h, HCT116 cells, 48 hours, minimal concentration inducing apoptotic morphological changes in 50% of treated cells, read-out: 50% APOPTOTIC
# [4] = HCT-116, minimum concentration required to achieve apoptosis of 50% of the HCT116 cells (Table 7), read-out: HCT116 50% apoptosis
# [5] = HCT-116, minimum concentration required to achieve apoptosis of 50% of the HCT116 cells (Table 8), read-out: HCT116 50% apoptosis
# [6] = recombinant rat RabGGT, Rab3A, REP-1, 30 minute at 37° C.
Structure (SMILES),"EC50 [1, 3] [nM]","EC50 [1, 4] [nM]","EC50 [1, 5] [nM]",IC90/IC50 (rat RabGGT),IC50 (rat RabGGT; Table 7) [nM],RabGGT inhibition (rat RabGGT),IC50 (rat RabGGT; [6]) [nM],IC90 (rat RabGGT; [6]) [nM],IC50 [2] [nM],IC90 [2] [nM],IC90 (rat RabGGT; Table 7) [nM]
Cn1cncc1CN1CC(N(CC(=O)OC(C)(C)C)S(=O)(=O)c2ccccn2)Cc2cc(C#N)ccc21 (stereo not shown) [Compound 7R],30000,30000,30000,19,541,weaker inhibitors,541,10100,1.5,9,–
Cn1cnc(S(=O)(=O)N(Cc2ccsc2)C2Cc3cc(C#N)ccc3N(Cc3cncn3C)C2)c1 (stereo not shown) [Compound 7Q],30000,30000,30000,–,47,–,47,2300,0.6,6,–
Cn1cncc1CN1CC(N(Cc2ccsc2)S(=O)(=O)c2ccccn2)Cc2cc(C#N)ccc21 (stereo not shown) [Compound 7P],25000,25000,25000,–,84,–,84,2160,0.7,4,–
Cn1cncc1CN1CC(NS(=O)(=O)c2ccccn2)Cc2cc(C#N)ccc21 (stereo not shown) [Compound 7S],50000,50000,50000,19,73,–,73,1400,15.5,255,–
Cc1nc(CN(C2Cc3cc(C#N)ccc3N(Cc3cncn3C)C2)S(=O)(=O)c2ccccn2)cs1 (stereo not shown) [Compound 7T],90000,90000,90000,>10,1430,weaker inhibitors,1430,> 15000,3.7,48,> 15000

# Stronger by EC50 [1, 3], values ahead:
"EC50 [1, 3] [nM]","EC50 [1, 4] [nM]","EC50 [1, 5] [nM]",IC90/IC50 (rat RabGGT),IC50 (rat RabGGT; Table 7) [nM],RabGGT inhibition (rat RabGGT),IC50 (rat RabGGT; [6]) [nM],IC90 (rat RabGGT; [6]) [nM],IC50 [2] [nM],IC90 [2] [nM],IC90 (rat RabGGT; Table 7) [nM],Structure (SMILES)
10000,10000,10000,19,58,–,58,1120,1.4,8,–,C=C(C)CN(C1Cc2cc(C#N)ccc2N(Cc2cncn2C)C1)S(=O)(=O)N1CC=CC1 (stereo not shown) [Compound 7O]
3700,3300,3300,12,25,–,25,309,0.7,9,–,Cn1cc(S(=O)(=O)N(Cc2ccsc2)C2Cc3cc(C#N)ccc3N(Cc3cncn3C)C2)cn1 (stereo not shown) [Compound 7N]

# — patent US20040142888A1, “Modulators of RabGGT and methods of use thereof” (priority 2002, published 2004)
